Where two headings read alike, the source gives them in different places. Blank lines part the entries; values can stand above or below the molecule they belong to.
What was measured:
[1] = tested on: wtAR, mtARt877a, PR, VDR, ER transactivation; assay: Steroid receptor transactivation with Smad3 in DU145 cells (wtAR, mtARt877a, PR, VDR, ER); type: cell-based, human
[2] = tested on: wtAR, mtARt877a, PR, VDR, ER transactivation; conditions: previous reports; cited from earlier work
AR transactivation [3] = assay: AR transactivation with TSA, MMTV-LUC in PC3-AR2 cells; type: cell-based
AR transactivation [4] = conditions: previous reports; cited from earlier work
AR transactivation [5] = assay: AR transactivation, MMTV-luc / (ARE)4-luc luciferase reporter assay; type: cell-based; conditions: 10 nM DHT; for Repression of AR transactivation: MMTV-luc
PSA mRNA expression = PSA mRNA expression in LNCaP cells, Northern blot; type: cell-based; conditions: presence of androgen
AR protein stability = assay: Pulse-chase labeling of AR in COS-1 cells; type: cell-based; conditions: 10 nM DHT
Procedure: 30. […] The cells were harvested for Western blot analysis. […] Western blot analysis was performed and AR and PTEN were detected by AR antibody or PTEN antibody. (C) PTEN-C1 cells were treated with 4 μg/ml Dox in 10% CDS media for 48 h. Total RNA was prepared and Northern blot analysis was performed using [^32P]-dCTP-labeled AR (aa, 1-389) as a probe. (D) COS-1 cells were transfected with AR along with pCDNA3 or PTEN in 10% CDS media for 16 h. […] The cell extracts were immunoprecipitated with AR antibody and subjected to SDS-PAGE followed by autoradiography. Data were from three identical results. (E) COS-1 cells were transfected with AR along with pCDNA3 or dAkt in 10% CDS media for 16 h, pulsed with [^35S]-methionine for 45 min, and then harvested at different chase times as indicated. LY294002 (20 μM) was added 2 h before pulsing with [^35S]-methionine.
317. Pulse-chase experiments were performed as described (Lo et al. (1999) Nat Cell Biol 1, 472-8) with some modifications. Briefly, COS-1 cells were transfected with pSG5-AR in combination with pCDNA3 or pCDNA3 PTEN in 10% CDS media for […]. Cells were grown under serum starvation conditions for 2 h in methionine/cysteine-deficient medium, and then the cells were pulsed for 45 min with 200 μCi/ml [^35S]-methionine/cysteine (NEN). […]

LNCaP cells = assay: PTEN-induced apoptosis in LNCaP cells, TUNEL assay; type: cell-based; conditions: 0.1% CDS media 2 days
AR, ER, GR, PR, RXR = assay: GST pull-down assay of PTEN with nuclear receptors; type: binding; conditions: presence or absence of ligand
Procedure: 27. […] (A) GST or GST-PTEN incubation with the [^35S]-labeled AR, ER, or RXR for 2 h in the presence or absence of the ligand. The bound proteins were analyzed by SDS-PAGE, followed by autoradiography. (B) Representation of PTEN deleted mutants. PTP domain, protein tyrosine phosphates domain; Ty-p, tyrosine phosphorylation domain. (C) [^35S]-labeled AR was incubated with different PTEN deleted mutants. The nearly equivalent aliquots of PTEN deleted mutants used are shown in the right panel. (D) Representation of AR deleted mutants. (E) GST or GST-PTEN was incubated with different AR deleted mutants. (F) The His-AR-N-DBD was incubated with [^35S]-PTEN or [^35S]-PTEN C124S for 2 h. The bound protein was analyzed by the SDS-PAGE, followed by autoradiography.
313. GST fusion proteins were purified as described by the manufacturer (Amersham Pharmacia). The purified GST-proteins were resuspended with 100 μl of interaction buffer (20 mM Tris-HCl/pH 8.0, 60 mM NaCl, 1 mM EDTA, 6 mM MgCl2, 1 mM Dithiothreitol, 8% Glycerol, 0.05% (v/v) NP-40, 1 mM PMSF, and proteinase inhibitors) and mixed with 5 μl of [^35S]-labeled TNT proteins in the presence or absence of 1 μM ligands on a rotating disk at 4° C. for 2 h. After extensive washes with NENT buffer, the bound proteins were separated on an 8% SDS-polyacrylamide gel and visualized by autoradiography.

AR transactivation [6] = assay: AR transactivation, (ARE)4-luc in CWR22 cells; type: cell-based, human
Procedure: (§1) 31. […] (D) The LNCaP cells were transfected with plasmids as indicated for 16 h, and the medium was changed to 0.1% CDS media for 2 days. The cell apoptosis was determined by TUNEL assay (E) The LNCaP cells were transfected with plasmids as indicated for 16 h, harvested, and the cell extracts were subjected to SDS-PAGE. The Akt activity was determined by Western blotting using phospho(S473)-Akt antibody. (F) The U87MG cells were transfected with plasmids as indicated for 16 h, and the medium was changed 0.1% CDS media for 2 days. The cell apoptosis was determined by TUNEL assay. Data for luciferase activity and apoptosis are means±s.d. from three independent experiments.
312. […] The cells were lysed and the luciferase activity was detected by the dual luciferase assay according to standard procedures.

U87MG cells = assay: PTEN-induced apoptosis in AR-negative U87MG cells, TUNEL assay; type: cell-based
Procedure: as §1
311. For the apoptosis assay, the cells were transfected with plasmids for 24 h and grown in 0.1% charcol-stripped serum (CDS) media. The apoptosis was determined 2 days after transfection using the TUNEL assay according to the standard procedures (Oncogene). At least 200 cells were scored for each sample and data are means±s.d. from three independent experiments.

AR protein levels = assay: AR protein (Western blot) and AR mRNA (Northern blot) levels; type: cell-based
AR transactivation [7] = assay: AR transactivation with Smad3/Smad4, CAT reporters in PC3-AR2, PC-3 and LNCaP cells; type: cell-based, human; conditions: PC3-AR2
Procedure: 32. […] LNCaP cell were transfected with Smad3 or Smad4 expression vector instead of PC-3(AR)2 cells in experiments otherwise identical with those in A (B), PC-3(AR)2 cells stably transfected with AR were over-expressed with the indicated amounts of Smad3 or Smad4 or SRC-1. 3 μg of MMTV-CAT was used as a reporter plasmid in all experiments. All values represent the averages±SD of four independent experiments. […] PSA expression level was determined by Northern blotting. The probe was obtained from exon 1 of the PSA gene and labeled with [α-^32P] dCTP. A β-actin probe was used as a control for equivalent mRNA loading. (C, Table 1) The RNA samples from (A) were reverse transcribed to cDNAs and all of the samples were subjected to real-time CR using an ABI Prism 7700 Sequence Detection System (Perkin-Elmer Applied bio systems). PCR was performed using the SYBR Green PCR Core Reagents kit (Perkin-Elmer Applied Bio systems). PSA and β-actin forward, reverse primers concentrations were 2.5 μM. To reduce variability between replicates, PCR premixes which contained all reagents except for total RNA were prepared and aliquoted into 1.5 ml microfuge tubes. Specific PCR amplification products were detected by the fluorescent double-stranded DNA-binding dye SYBR Green core reagent kit. […]
333. […] The CAT activity was visualized and quantitated by STORM 840 (Molecular Dynamics). […]

[8] = tested on: AR-mediated transactivation; assay: AR-mediated transactivation with TGF-β, MMTV-CAT in DU145 and PC-3 cells; type: cell-based, human
Procedure: 19. […] (B). […] In the right panel, a fixed amount of TGF-β1 (10 ng/ml) was added into transfected PC-3 cells with increasing amounts of specific TGF-β1 neutralizing antibody. (C), PC-3(AR)2 cells stably transfected with AR were overexpressed with TGF-β type I (TβRI) or type II (TβRII)receptor or constitutively active TGF-β type I receptor (TβRI-T204D) as indicated. 3 μg of MMTV-CAT or MMTV-Luc was used as a reporter plasmid in all experiments. All values represent the averages+SD of four independent experiments.
284. To study the potential correlation between androgen and TGF-β in prostate cancer cells, the TGF-β responsive prostate cancer DU145 and PC-3 cells were chosen to examine the effect of TGF-β on androgen-induced mouse […] tumor virus (MMTV) promoter activity. […] Similar results were obtained with PC-3 cells, where AR-mediated transactivation was enhanced by TGF-β (FIG. 13B, lane 2 Vs 3-5) and suppressed by the TGF-β specific neutralizing antibody (FIG. 13B, lane 6 vs. 7-10), both in a dose-dependent manner (FIG. 13B).
294. […] The CAT activity was visualized and quantitated by STORM 840 (Molecular Dynamics). […]

[9] = biological target: T1, interaction between Smad3 and AR (Homo sapiens, UniProt P10275); assay: Mammalian two-hybrid assay Gal4-Smad3 / VP16-AR; type: cell-based; conditions: DU145
T1 construct: expressed in transfected cells; host or cells: DU145
T1 sequence (P10275 whole entry, the tested form may be a part): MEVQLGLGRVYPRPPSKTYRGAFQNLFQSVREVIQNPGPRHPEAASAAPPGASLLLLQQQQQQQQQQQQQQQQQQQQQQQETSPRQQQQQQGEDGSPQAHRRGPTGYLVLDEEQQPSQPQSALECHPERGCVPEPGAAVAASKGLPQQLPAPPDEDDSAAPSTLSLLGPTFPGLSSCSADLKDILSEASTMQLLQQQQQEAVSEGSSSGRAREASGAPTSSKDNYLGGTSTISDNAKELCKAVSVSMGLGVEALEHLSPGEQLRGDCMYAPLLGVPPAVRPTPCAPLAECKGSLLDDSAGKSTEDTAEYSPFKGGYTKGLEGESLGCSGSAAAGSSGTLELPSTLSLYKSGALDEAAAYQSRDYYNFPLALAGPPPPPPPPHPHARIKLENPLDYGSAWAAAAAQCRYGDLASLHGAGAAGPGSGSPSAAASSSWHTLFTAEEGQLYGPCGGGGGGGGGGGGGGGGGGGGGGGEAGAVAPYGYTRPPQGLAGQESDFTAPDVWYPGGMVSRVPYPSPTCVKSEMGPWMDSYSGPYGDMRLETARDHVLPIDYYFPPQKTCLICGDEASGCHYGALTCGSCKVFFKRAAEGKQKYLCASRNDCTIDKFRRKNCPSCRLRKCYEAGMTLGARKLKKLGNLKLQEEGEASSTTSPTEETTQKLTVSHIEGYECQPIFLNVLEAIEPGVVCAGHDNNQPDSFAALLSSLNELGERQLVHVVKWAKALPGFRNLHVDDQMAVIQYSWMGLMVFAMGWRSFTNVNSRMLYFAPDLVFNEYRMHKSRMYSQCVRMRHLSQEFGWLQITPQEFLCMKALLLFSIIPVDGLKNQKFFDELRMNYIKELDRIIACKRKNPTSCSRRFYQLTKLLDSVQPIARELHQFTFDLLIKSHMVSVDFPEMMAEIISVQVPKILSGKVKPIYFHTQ
T1 sequence (P84022 whole entry partner, the tested form may be a part): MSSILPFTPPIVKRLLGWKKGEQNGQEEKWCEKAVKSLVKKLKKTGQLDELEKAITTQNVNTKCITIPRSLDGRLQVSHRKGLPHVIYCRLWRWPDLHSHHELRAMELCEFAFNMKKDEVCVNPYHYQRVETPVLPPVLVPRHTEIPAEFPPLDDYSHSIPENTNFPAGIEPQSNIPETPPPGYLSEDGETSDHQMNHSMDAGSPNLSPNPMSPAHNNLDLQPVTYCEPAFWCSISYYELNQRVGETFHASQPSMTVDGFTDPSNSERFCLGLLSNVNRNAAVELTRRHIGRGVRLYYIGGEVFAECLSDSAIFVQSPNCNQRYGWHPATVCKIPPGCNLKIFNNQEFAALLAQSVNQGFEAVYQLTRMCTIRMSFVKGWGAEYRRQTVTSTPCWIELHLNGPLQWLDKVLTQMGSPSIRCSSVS

Molecule: C[C@]12CC[C@@H]3c4ccc(O)cc4CC[C@H]3[C@@H]1CC[C@@H]2O [E2, 17-β estradiol]
mtARt877a transactivation response to ligand [1]: responded much better | wtAR transactivation response to ligand ([1]; DHT 10 nM, HF 1 μM, E2 10 nM): respond marginally | Stimulation of LNCaP mtARt877a [2]: stimulated

Molecule: CC(/C=C/C(=O)NO)=C\[C@@H](C)C(=O)c1ccc(N(C)C)cc1 [TSA, trichostatin A]
Effect on Smad3/Smad4-suppressed AR transactivation (AR transactivation [3]): reverse the Smad3/Smad4-suppressed AR transactivation in a dose-dependent manner | Effect on AR transactivation (AR transactivation [3]; DHT, increasing doses): enhance AR transactivation in a dose-dependent manner | Effect on Smad3/Smad4-suppressed AR transactivation (AR transactivation [3]; listed as trichostatin A): reverse Smad3/Smad4-repressed AR transactivation | Effect on androgen-mediated AR transactivation (AR transactivation [4]): induce the androgen-mediated AR transactivation

Molecule: CC(=O)[C@H]1CC[C@H]2[C@@H]3CCC4=CC(=O)CC[C@]4(C)[C@H]3CC[C@]12C [progesterone]
Stimulation of LNCaP mtARt877a [2]: stimulated

Molecule: PTEN: tumor suppressor, phosphatase and tensin homolog deleted on chromosome ten
Repression of AR transactivation (AR transactivation [5]; AR negative DU145 and PC-3): less than 2 fold | Repression of AR transactivation (AR transactivation [5]; AR-positive LNCaP cells): 4 fold | Effect on AR transactivation (AR transactivation [5]; LNCaP, MMTV-luc and (ARE)4-luc): suppressed AR transactivation in both luciferase reporters at a similar level | Effect on androgen-induced PSA mRNA expression (PSA mRNA expression): repressed | Reduction of the half-life of newly synthesized [35S]-AR (AR protein stability): 4 to 5 fold | Apoptosis (LNCaP cells): induce apoptosis markedly | Binding to nuclear receptors (AR, ER, GR, PR, RXR): binds preferentially to AR and the ER | Effect on AR transactivation (AR transactivation [6]): dramatically suppressed AR transactivation | Apoptosis (U87MG cells): still able to induce apoptosis | AR protein levels (AR protein levels; COS-1 cells, transient transfection): reduce AR protein levels | AR mRNA levels normalized by β-actin (AR protein levels; LNCaP PTEN-C1, Dox-induced PTEN): remained relatively unchanged | Endogenous AR protein levels (AR protein levels; stable LNCaP clones, 4 μg/ml Dox 48 h, 10 nM DHT): reduced endogenous AR protein levels

Molecule: SRC-1: steroid receptor coactivator-1
Effect on AR transactivation in the presence of Smad3 or Smad4 (AR transactivation [7]): increase AR transactivation

Effect on Smad3-AR two-hybrid reporter gene activity ([9]; 10 nM DHT): further induced | Effect on Smad3-AR two-hybrid reporter gene activity ([9]; absence of DHT): cannot exert this effect
Molecule: TGF-β: transforming growth factor β
Effect on AR-mediated transactivation ([8]; DU145, 10^−8 M DHT, TGF-β1 10 ng/ml): enhanced | Effect on AR-mediated transactivation ([8]; PC-3, dose-dependent): enhanced

Reference: US20040235717A1, “Suppression of androgen receptor transactivation through new pathways to ar and ar coactivators and repressors” (priority 2001, published 2004)
